Test results taken from patent US20250090564A1, “BIOACTIVES AND THEIR USES” (AREPA IP LIMITED, priority 2022, published 2025).
pIC50: −log10 of the molar value. Like-named read-outs stand apart in the source and are kept apart here. One block for each compound: values may come before it.

How the values were obtained:
[1] = in vivo; cited from earlier work
MAO-A and B = conditions: irreversible, non-selective inhibitor; cited from earlier work
platelet MAO-B = target: T1, platelet MAO-B (Homo sapiens, UniProt P27338); assay: Acute sarmentosin pilot study, platelet MAO-B activity (Example 10); type: in vivo; conditions: for platelet MAO-B activity compared with baseline (0 h): 2 h after consumption; for platelet MAO-B activity compared with baseline: 4 h after consumption
T1 construct: platelets were isolated from whole blood; from tissue; host or cells: platelets isolated from venous blood of human participants
T1 sequence (P27338 1-520): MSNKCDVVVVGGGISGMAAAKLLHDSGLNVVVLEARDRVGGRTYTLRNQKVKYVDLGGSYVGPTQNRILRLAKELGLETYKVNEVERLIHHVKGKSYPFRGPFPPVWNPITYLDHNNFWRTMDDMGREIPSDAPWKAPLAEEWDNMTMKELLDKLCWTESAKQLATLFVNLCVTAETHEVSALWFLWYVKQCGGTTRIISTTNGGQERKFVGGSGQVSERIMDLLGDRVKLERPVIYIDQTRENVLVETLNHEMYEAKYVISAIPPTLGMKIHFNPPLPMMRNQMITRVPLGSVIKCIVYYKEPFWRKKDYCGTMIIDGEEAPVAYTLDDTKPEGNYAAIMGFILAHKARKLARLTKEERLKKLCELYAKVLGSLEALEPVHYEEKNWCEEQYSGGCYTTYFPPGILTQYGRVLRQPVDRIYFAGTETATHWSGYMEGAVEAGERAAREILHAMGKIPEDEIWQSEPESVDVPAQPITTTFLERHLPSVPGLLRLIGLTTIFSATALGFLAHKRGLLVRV
Description: To determine the efficacy of sarmentosin in temporally inhibiting platelet MAO-B activity, we conducted a randomized, placebo-controlled crossover study. Human participants completed three treatment conditions (placebo, 42 mg sarmentosin, and 84 mg sarmentosin), with each trial day separated by at least 48 h.
Five healthy male adults aged between 25 and 36 years old were enrolled in this study. Participants were randomly allocated one of the three trial treatment beverages. All participants completed all three treatment arms of the study, and data from all participants were included in the study analysis. Enrolled participants were required to take part in three trial days where they consumed their allocated sarmentosin beverages or the placebo. Participants adhered to the same dietary restrictions and consumed the same standardized breakfast as previously described in the intervention study. A venous blood sample was collected at the beginning of each trial day, and then, participants were given their treatment beverage to consume immediately. […] Water was provided ad libitum during the trial day, and participants were seated in the clinical trial facility between venous blood collection time points.
Blackcurrant juice previously confirmed to contain sarmentosin was diluted 1:1 with RO-purified H2O and slowly applied to a column (10 cm diameter×125 cm height) filled with Diaion HP20 resin (Mitsubishi Chemical Industries, Japan). The eluant was collected until it was determined that most of sarmentosin had eluted and was quantified as described previously. Sarmentosin fractions were combined and concentrated using a rotary evaporator, and the resulting sarmentosin-rich fraction was then sterile filtered (Millipore Stericup (0.22 μM), Sigma-Aldrich).
Participants consumed a 250 mL beverage containing 42 and 84 mg total sarmentosin, similar to that present in one and two servings, respectively, of a commercial BC juice (Arepa Performance). Sucrose, BC flavouring, and coloring were added to the beverages to blind for taste and appearance. The placebo beverage was matched for sucrose, contained the same volume of added BC flavouring and coloring produced by Sensient Technologies (Auckland, New Zealand) as the sarmentosin beverages, and diluted to 250 mL to match for sweetness, appearance, and flavor.

[2] = In vitro digestion of blackcurrant juice concentrate (pepsin/acid, bile salts/pancreatin), LCMS; type: in vitro ADME
Description: Samples were taken at the end of 1st step and at 30 min intervals in the 2nd step to give 6 samples for analysis. The samples will be examined (LCMS) for the level of sarmentosin and sarmentosin esters and compared with the feed material. The two samples were treated as shown below in Table 17 to replicate digestion. [table] Samples taken from the subsequent treatments were stored frozen until required for analysis. The samples were all a similar volume and concentration of original juice. Analysis was performed using LCMS (method described in the earlier work). Samples were prepared in two ways, 1. addition of methanol to precipitate any protein or 2. Direct sampling of neat solution after centrifugation.

human enzyme MAO-B = target: T2, human enzyme MAO-B (Homo sapiens, UniProt P27338); assay: MAO-Glo assay kit, MAO-B; type: biochemical; conditions: highest concentration tested
T2 sequence (P27338 1-520): T1 sequence (P27338 1-520)
Description: (§1) Synthetic sarmentosin (BOC Sciences; Cat. No. B2703-149954) was diluted in PBS for the MAO inhibition assays. […] Briefly, samples were combined with the kit's luminogenic MAO substrate solution and human enzyme (MAO-A or MAO-B at a final concentration of 20 μg/mL) and incubated at room temperature for 1 h. Following incubation, the luciferin detection reagent were added to each sample and the change in luminescence was measured at room temperature over 40 min in a FLUOstar Omega plate reader (BMG FluoStar Optima, Alphatech Systems, Auckland, New Zealand). […] All samples were analysed in triplicate on each plate.

MAO-A [3] = target: T3, MAO-A (Homo sapiens, UniProt P21397); assay: MAO-Glo assay kit, MAO-A; type: biochemical; conditions: dose response curve, 1 h room temperature
T3 sequence (P21397 1-527): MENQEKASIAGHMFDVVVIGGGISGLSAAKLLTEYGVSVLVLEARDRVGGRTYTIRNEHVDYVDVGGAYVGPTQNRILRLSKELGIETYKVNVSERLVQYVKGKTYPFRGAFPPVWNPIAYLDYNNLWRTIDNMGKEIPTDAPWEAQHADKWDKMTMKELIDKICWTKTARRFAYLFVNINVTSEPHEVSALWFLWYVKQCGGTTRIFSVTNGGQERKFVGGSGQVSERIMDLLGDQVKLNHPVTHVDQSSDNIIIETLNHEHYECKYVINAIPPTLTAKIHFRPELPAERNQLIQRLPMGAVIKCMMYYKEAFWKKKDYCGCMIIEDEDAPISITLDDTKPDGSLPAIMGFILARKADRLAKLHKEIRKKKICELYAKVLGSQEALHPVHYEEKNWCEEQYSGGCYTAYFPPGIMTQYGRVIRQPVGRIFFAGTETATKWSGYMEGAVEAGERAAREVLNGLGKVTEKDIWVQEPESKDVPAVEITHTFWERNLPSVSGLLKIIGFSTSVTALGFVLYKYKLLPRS
Description: as §1

MAO-B = target: T4, MAO-B (Sus scrofa, UniProt Q6PLK3); assay: S9 porcine liver microsome fraction assay, kynuramine to 4HQ by LCMS; conditions: qualitative statement
T4 sequence (Q6PLK3 2-520): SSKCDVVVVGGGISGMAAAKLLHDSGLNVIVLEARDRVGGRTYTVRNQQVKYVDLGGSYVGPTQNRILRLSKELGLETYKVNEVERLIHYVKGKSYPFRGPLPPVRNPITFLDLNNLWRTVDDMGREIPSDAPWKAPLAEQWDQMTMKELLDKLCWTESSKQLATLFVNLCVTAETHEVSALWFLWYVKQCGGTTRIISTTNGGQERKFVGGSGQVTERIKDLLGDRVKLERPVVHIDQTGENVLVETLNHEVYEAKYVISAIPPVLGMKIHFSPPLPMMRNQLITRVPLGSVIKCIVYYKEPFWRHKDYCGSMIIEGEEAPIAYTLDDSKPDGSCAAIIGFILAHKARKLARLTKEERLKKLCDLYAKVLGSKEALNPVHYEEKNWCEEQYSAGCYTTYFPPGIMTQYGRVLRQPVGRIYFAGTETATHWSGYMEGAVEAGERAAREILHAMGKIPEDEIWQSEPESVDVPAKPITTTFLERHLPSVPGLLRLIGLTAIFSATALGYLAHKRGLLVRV
Description: We used a porcine S9 liver microsome fraction as the source of the MAO-A and MAO-B enzymes.
The S9 porcine fraction was mixed with a specific MAO substrate (kynuramine) and mixed with the test sample and buffer. After 1 hr at 37° C. the reaction was halted by cooling and addition of 2N NaOH and acetonitrile. The centrifuged sample was then analysed using LCMS and the level of 4-quinolol (4HQ) product measured.
Samples were prepared in a 6-well plate (deep well format with 1.1 ml strip tubes). The assay was performed by diluting the crude S9 fraction with buffer (PBS, PH 7.4, diluted 1 in 5, 150 μl) and adding the test sample dissolved in buffer (75 ul). An aliquot of kynuramine was added (10 ul of 1 mg/ml) and the plate was placed in a 37 C water bath for 1 hr. The plate was cooled in ice water before addition of 20 ul 2N NaOH followed by 250 μl acetonitrile. The individual strip tubes were centrifuged, and samples taken from each for LCMS analysis.
The LCMS analysis was performed using a Cyano HPLC column eluted with 0.1% formic in water and acetonitrile. The LC run was isocratic mode (40% Acetonitrile) and the relative levels of 4 hydroxy quinoline (4HQ) and kynuramine determined from peak areas. […] Kynuramine is converted to 4HQ by the MAO-B enzyme.
Various juice samples, concentrates, powders and whole fruit were tested. […]

[4] = human, in vivo
Description: Plasma was separated from whole blood collected in lithium heparin tubes from participants by centrifugation at 4000×g for 10 min at 4° C. Plasma (1 mL) was spiked with 30 μL of 50% formic acid and 100 µL of 10 mmol ascorbic acid then stored at −80° C. prior to shipping on dry ice to the Physiological Chemistry laboratory.
The plasma samples (350 μL) were spiked with malvidin 3-O-galactoside and further acidified with phosphoric acid prior to clean up on a SOLAμ™ Solid Phase Extraction plate. Following washing with water and acetic acid, the retained anthocyanins were eluted with methanol: formic acid (95:5), evaporated to dryness then reconstituted in acetonitrile: formic acid: water (5:3:92) prior to analysis by Liquid Chromatography-Mass Spectrometry (LC-MS). Quantifications of individual and total anthocyanins were performed using the internal standard ratio method using MultiQuant software, and all results are reported as cyanidin 3-O-glucoside equivalents. Quantification of sarmentosin was performed using an external reference standard supplied by Stephen Bloor (Callaghan Institute).

MAO-A [5] = target: T3, MAO-A; set-up: purchased Sigma-Aldrich MAK295/296; conditions: reversible inhibitor; cited from earlier work

Compound: O=C(NCCN1CCOCC1)c1ccc(Cl)cc1 [Moclobemide]
time to reach peak concentrations [1]: approximately 1 hours

Compound: NNCCc1ccccc1 [Phenelzine]
duration of inhibition of MAO-A and B (MAO-A and B): up to three

Compound: N#C/C(=C\CO[C@@H]1O[C@H](CO)[C@@H](O)[C@H](O)[C@H]1O)CO [sarmentosin, 4-(beta-D-glucopyranosyloxy)-2-(hydroxymethyl-2-butenenitrile)]
platelet MAO-B activity compared with baseline (0 h) (platelet MAO-B; 42 mg sarmentosin): similarly inhibited platelet MAO-B activity
platelet MAO-B activity compared with baseline (platelet MAO-B; 42 mg sarmentosin): MAO-B activity comparable to baseline
platelet MAO-B activity compared with baseline (0 h) (platelet MAO-B; 84 mg sarmentosin): similarly inhibited platelet MAO-B activity
platelet MAO-B activity compared with baseline (platelet MAO-B; 84 mg sarmentosin): MAO-B activity comparable to baseline
concentration after in vitro digestion steps [2]: increase
effect of final heating step (90 C. for 10 min) after digestion [2]: some degradation
inhibition at 250 µM (human enzyme MAO-B): 32%
pIC50 (MAO-A [3]): 5.45
MAO inhibition activity in S9-LCMS bioassay (level of 4HQ) (MAO-B): the same activity
time of peak concentrations of sarmentosin in plasma [4]: 120 min

Compound: Cc1cccc(N2CC(CO)OC2=O)c1 (centres unmarked) [toloxatone]
duration of MAO-A inhibition before activity returns to baseline (MAO-A [5]): six

concentration after in vitro digestion steps ([2]; esters: steps 3 through 5, sarmentosin: steps 3 and 4, FIGS. 32 and 33): decrease
Compound: nigrumin-p-coumarate
